# US8604048B2, “Pyridocarbazole type compounds and applications thereof” (Centre National de la Recherche Scientifique, priority 2009, dated 2013)
# How the values were obtained:
# [1] = test system: LIMK1 activity in HeLa cells; assay: Cellular LIMK1 activity assay (Ser3-cofilin phosphorylation, western blot); format: cell-based, Human; settings: for Inhibition of Ser3-cofilin phosphorylation in HeLa cells: 2 h, indicated concentrations
# Method: HeLa cells were treated by compounds (or equivalent amount of DMSO as control) at indicated concentrations and time. Whole cell extracts were prepared using RIPA buffer (50 mM Tris-HCl pH=7.4, 150 mM NaCl, 1% NP-40, 0.5% sodium deoxycholate, 1% SDS, 1 mM EGTA, 1 mM EDTA, 5% glycerol, 1 mM DTT) supplemented with protease inhibitors (Sigma, P8340) and phosphatase inhibitors (Sigma, P5726). About thirty micrograms of proteins were loaded and migrated through a 12% SDS-PAGE. After electro-transfer, the nitrocellulose membrane was saturated with PBS, 0.1% Tween® 20, 5% Bovin Serum Albumin. Amount and phosphorylation status of cofilin were estimated using the polyclonal antibodies anti-cofilin (Cytoskeleton, #ACFLO2) and anti-phosphocofilin (Ser3) (Cell Signaling, #3311). Goat anti-rabbit IgG-HorseRadish Peroxidase conjugated (Biosource, #ALI0404) was used as secondary antibody. Detection was performed using ECL plus western blotting detection system (GE Healthcare).
# HeLa cells were treated by 25 μM Compound 1 (H06) for 2 h (lane 2). Culture medium was then discarded and fresh medium (RPMI) was added. At different times after RPMI addition (lane 3, 30 minutes; lane 4, 1 hour; lane 5, 1.5 hour; lane 6, 2 hours; lane 7, 4 hours), amount and phosphorylation status of cofilin were determined as described in Example 2. The lane 1 corresponds to time “0”, i.e. a cell extract of cells that have not been treated with Compound 1.
# HeLa cells were treated by indicated concentrations of Compound 1 (or ellipticine as negative control) for 2 h.
# Amount and phosphorylation status of cofilin were determined as described in Example 2. In vitro phosphorylated cofilin (left) was used as control.
# HeLa cells were treated by 25 μM of Compound 1 for indicated time. Amount and phosphorylation status of cofilin were determined as described in Example 2.
# [2] = test system: actin network of HeLa cells; assay: Stability of the actin network to a depolymerization induced by latrunculin B; format: cell-based, Human
# Method: 7. a step of analysis of the effect of the compound to be tested on the actin network, via incubation of HeLa cells with the compound to be tested. […] When the actin network is stabilized, the latrunculin-induced depolymerization of the actin network is limited.
# The cells are grown on glass coverslips and incubated as for the tubulin staining. After elimination of the medium, the cells are washed with warm PBS then fixed, by addition of a solution of PBS/3.7% formaldehyde for 30 minutes at 37° C. The cells are washed with PBS then permeabilized with a solution of PBS/0.2% Triton X100 for 15 minutes at room temperature. After another washing with PBS, the cells are incubated with a solution of PBS/1% BSA for 30 minutes at room temperature. The cells are then incubated with phalloidin (0.165 μM final concentration) labelled with Alexa Fluor® 488 (Molecular Probes, Invitrogen) for 20 minutes at room temperature. The cells are washed a final time with PBS then dehydrated with pure ethanol. Finally, the cells are fixed to slides using a Fluorsave™ mounting solution.
# 8) Test for the Action on the Actin Cytoskeleton: Protocol for Evaluating, in Cells, the Stability of the Actin Network to a Depolymerization Induced by Latrunculin B
# 3 days before the experiment, glass coverslips are deposited under sterile conditions in 24-well microplates. In each well, HeLa cells (15 000 cells per well) in the exponential growth phase are seeded in 500 μl of RPMI medium.
# PBS (phosphate buffered saline, ref. P4417, Sigma), PBS/1% BSA (bovine serum albumin, Ref. A3059, Sigma), aliquots of 15 ml, stored at −20° C.; PBS/0.2% Triton X100 (Ref. T8787, Sigma); PBS/0.01% Tween® 20 (Ref. P9916, Sigma); PBS/0.3% BSA/0.02% NaN3 (Ref. for the NaN3: 6688, Merck), aliquots of 15 ml stored at −20° C. Phalloidin A488, (Ref. A12379, Invitrogen). L4: rabbit anti-detyrosinated-tubulin polyclonal antibody (cf. Fonrose et al., Cancer Res., […], 67:3371-3378). Anti-rabbit antibody coupled to Cyanine 3 (Ref. 111.165.144, Jackson Laboratories). […]
SMILES,"Reversibility of inhibition of Ser3-cofilin phosphorylation in HeLa cells ([1]; 25 μM for 2 h, then replaced by RPMI medium)",Inhibition of Ser3-cofilin phosphorylation in HeLa cells [1],"Treatment time after which the inhibitory effect on cofilin phosphorylation is detected ([1]; HeLa, 25 μM)","Protection of the actin network from depolymerization by latrunculin B ([2]; HeLa cells, confocal microscope)",Effect on the stabilization of actin microfilaments ([2]; general statement)
"Cc1c2cc[nH]c(=O)c2c(C)c2c1[nH]c1ccc(OC(=O)c3ccccc3)cc12 [Compound 1, 9-benzoyloxy-5,11-dimethyl-2H,6H-pyrido[4,3-b]carbazol-1-one]",phospho-cofilin is synthesized again,"clearly inhibits the formation of phospho-cofilin, in a dose-dependent manner",30 min,protects the actin network,
Cc1c2ccncc2c(C)c2c1[nH]c1ccccc12 [ellipticine],,does not avoid the phosphorylation of cofilin,,,does not have any effect
